According to US4988697A, “Fungicidal compositions and method” (Merck & Co., Inc., priority 1989, dated 1991):
In brackets after ≈: the same amount, converted by molar mass.

What was measured:
Type in all cases: cell-based
C. miyabeamis = test: MIC against fungal panel, C. miyabeamis
Method: In a manner similar to that above described for effect against Candida albicans the synergistic effect of the combination of the β-lactone compound and ketoconazole against a fungal panel was determined by plating on potato dextrose agar.
(§1) First the MIC for the β-lactone compound and the MIC for the ketoconazole were determined against an array of organisms. Thereafter, the effects on the MIC of adding 0.031, 0.125, 0.5 and 2 μg/ml of ketoconazole were determined.

U. zeae = test: MIC against fungal panel, U. zeae
Method: as §1

Candida albicans MY 1055 [1] = test: Effect of Azole Antifungals on the MIC'S of the β-Lactone Compound
Source text: The β-lactone compound and the following conazole compounds: cis-1-acetyl-4-[4-[[2-(2,4-dichlorophenyl)-2-1H-imidazole-1-ylmethyl)-1,3- dioxolan-4-yl]-methoxyl]phenyl]piperazine (ketoconazole), α-(2,4-difluorophenyl)-α-(1H-1,4-triazol-1-ylmethyl)1H-1,2-4-triazole-1-ethanol (fluconazole and cis-4-[4-[4-[4-[[2-(2,4-dichlorophenyl)-2-(1H-1,2,4-triazole-1-ylmethyl)-1,3-dioxolan-4-yl]-methoxy] phenyl]-1-piperazinyl]phenyl-2,4-dihydro-2-(1-methylpropyl)-3H-1,2,4-triazol-3-one (itraconazole), were dissolved in DMSO and serially diluted in the manner previously described.
Assay tubes were prepared in a manner similar to that previously described and in operations carried out in a manner similar to that previously described, the effect of various conazole compounds on the MIC of the β-lactone compound were determined.

C. albicans (Y1750) = test: MIC against fungal panel, C. albicans (Y1750)
Method: as §1

A. niger = test: MIC against fungal panel, A. niger
Method: as §1

Candida albicans MY 1055 [2] = test: Minimum Inhibitory Concentration, broth dilution; details: MY1055, YNB/G, 37° C., 17 hr
Method: 11-(3-hydroxymethyl-4-oxo-2-oxetanyl)-7-methyl-2,4-undecadienoic acid (β-lactone compound), was solubilized in 100 percent dimethylsulfoxide (DMSO). Twofold dilutions were made with DMSO to obtain final drug concentrations in the broth dilution assay tubes ranging from 0.625 to 100 μg/ml.
The Candida albicans, MY 1055, yeast culture maintained in yeast nitrogen base/glucose (1/2 percent), YNB/G, was transferred to fresh medium and incubated 7 hours at 37° with shaking at 250 rpm. After incubation, each culture was diluted to A600 =0.0004 U/ml which was previously determined to be equal to 3000 cfu/ml (colony forming units per milliliter).
1 milliliter of YNB/G inoculated with yeast culture was added to sterile test tubes. The tubes were incubated at 250 rpm, 37° C. for 17 hr. The minimum inhibitory concentrations (MIC) was recorded as the lowest concentration of drug […].

Candida albicans = test: Synergistic and fungicidal effect on exponential phase cultures (CFU/ml over time); details: ketoconazole 1 μg/ml, alone or combined
Method: Synergistic and fungicidal effects were determined by treating exponential phase Candida albicans cultures with β-Lactone at MIC and MFC levels and ketoconazole at 0.1 μg/ml or a 1 μg/ml alone or in combination. Exponential phase cultures were prepared by diluting an overnight culture 1:50 or 1:1000 in YNB/G. After incubating the diluted cells 7 or 17 hrs. at 37° C., the exponential phase cells were diluted in YNB/G to A600 =0.0004 u/ml to obtain 3000 cfu/ml.
10 microliters (μl) of β-lactone compound or ketoconazole prepared in DMSO was added to 1 ml of diluted exponential phase cells. The tubes were incubated at 37° C. at 250 rpm for 27 hours. Periodically, aliquots were diluted in 0.9% saline and plated on Sabouraud dextrose agar plates to determine the number of cfu/ml.

F. oxysporium = test: MIC against fungal panel, F. oxysporium
Method: as §1

C. neoformans = test: MIC against fungal panel, C. neoformans
Method: as §1

C. albicans (Y1055) = test: MIC against fungal panel, C. albicans (Y1055)
Method: as §1

Candida albicans MY 1055 [3] = test: Minimum Fungicidal Concentration, plating of MIC tubes; details: MY1055, ≥95% reduction of viable cells, 37° C., 17 hours
Method: In the manner above described for the determination of minimum inhibitory concentration, broth dilution assay tubes were prepared ranging from 0.625 to 100 μg/ml and 1 milliliter of YNB/G inoculated with Candida albicans MY 1055 sterile test tubes. The tubes were incubated at 250 rpm at 37° C. for 17 hours. The minimum fungicidal concentration (MFC) was determined by serially diluting samples of MIC tubes in 0.9% saline. Aliquots were plated on Sabouraud dextrose agar. The plates were incubated at 37° for 48 hr. and the colonies counted. From the counts obtained, the number of cfu/ml in the undiluted drug-culture tube was calculated. The MFC is defined as the minimum amount of drug required to reduce the number of viable cells initially present in the drug-culture tubes greater than or equal to 95%. The MFC was 10 μg/ml.

CC(=CC(=O)O)C=C(C)CC(C)CCCCC1OC(=O)C1CO (stereo not drawn) [β-Lactone Compound]
MIC, β-Lactone Compound in Presence of Ketoconazole (C. miyabeamis; ketoconazole 0 μg/ml): 0.78 µg/mL
MIC, β-Lactone Compound in Presence of Ketoconazole (C. miyabeamis; ketoconazole 0.031 μg/ml): 0.39 µg/mL
MIC, β-Lactone Compound in Presence of Ketoconazole (C. miyabeamis; ketoconazole 0.123 μg/ml): 0.78 µg/mL
MIC, β-Lactone Compound in Presence of Ketoconazole (C. miyabeamis; ketoconazole 2 μg/ml): N.G.
MIC, β-Lactone Compound in Presence of Ketoconazole (U. zeae; ketoconazole 0 μg/ml): 3.125 µg/mL
MIC, β-Lactone Compound in Presence of Ketoconazole (U. zeae; ketoconazole 0.031 μg/ml): 3.125 µg/mL
MIC, β-Lactone Compound in Presence of Ketoconazole (U. zeae; ketoconazole 0.123 μg/ml): 0.78 µg/mL
MIC, β-Lactone Compound in Presence of Ketoconazole (U. zeae; ketoconazole 0.5 μg/ml): 0.19 µg/mL
MIC, β-Lactone Compound in Presence of Ketoconazole (U. zeae; ketoconazole 2 μg/ml): 0.19 µg/mL
MIC of β-lactone compound (Candida albicans MY 1055 [1]; fluconazole 0 μg/ml): 2.5 µg/mL
MIC of β-lactone compound (Candida albicans MY 1055 [1]; itraconazole 0 μg/ml): 2.5 µg/mL
MIC of β-lactone compound (Candida albicans MY 1055 [1]; ketoconazole 0 μg/ml): 2.5 µg/mL
MIC of β-lactone compound (Candida albicans MY 1055 [1]; with fluconazole 0.3125 μg/ml): 1.25 µg/mL
MIC of β-lactone compound (Candida albicans MY 1055 [1]; with fluconazole 1.25 μg/ml): 0.625 µg/mL
MIC of β-lactone compound (Candida albicans MY 1055 [1]; with fluconazole 5.0 μg/ml): 0.625 µg/mL
MIC of β-lactone compound (Candida albicans MY 1055 [1]; with itraconazole 0.3125 μg/ml): 2.5 µg/mL
MIC of β-lactone compound (Candida albicans MY 1055 [1]; with itraconazole 1.25 μg/ml): 1.25 µg/mL
MIC of β-lactone compound (Candida albicans MY 1055 [1]; with itraconazole 5.0 μg/ml): 1.25 µg/mL
MIC of β-lactone compound (Candida albicans MY 1055 [1]; with ketoconazole 0.3125 μg/ml): 0.625 µg/mL
MIC of β-lactone compound (Candida albicans MY 1055 [1]; with ketoconazole 1.25 μg/ml): 0.625 µg/mL
MIC of β-lactone compound (Candida albicans MY 1055 [1]; with ketoconazole 5.0 μg/ml): 0.625 µg/mL
MIC, β-Lactone Compound in Presence of Ketoconazole (C. albicans (Y1750); ketoconazole 0 μg/ml): 3.125 µg/mL
MIC, β-Lactone Compound in Presence of Ketoconazole (C. albicans (Y1750); ketoconazole 0.031 μg/ml): 0.78 µg/mL
MIC, β-Lactone Compound in Presence of Ketoconazole (C. albicans (Y1750); ketoconazole 0.123 μg/ml): 0.195 µg/mL
MIC, β-Lactone Compound in Presence of Ketoconazole (C. albicans (Y1750); ketoconazole 0.5 μg/ml): 0.19 µg/mL
MIC, β-Lactone Compound in Presence of Ketoconazole (C. albicans (Y1750); ketoconazole 2 μg/ml): 0.19 µg/mL
MIC, β-Lactone Compound in Presence of Ketoconazole (A. niger; ketoconazole 0 μg/ml): > 50 µg/mL
MIC, β-Lactone Compound in Presence of Ketoconazole (A. niger; ketoconazole 0.031 μg/ml): > 50 µg/mL
MIC, β-Lactone Compound in Presence of Ketoconazole (A. niger; ketoconazole 0.123 μg/ml): > 50 µg/mL
MIC, β-Lactone Compound in Presence of Ketoconazole (A. niger; ketoconazole 0.5 μg/ml): > 50 µg/mL
MIC, β-Lactone Compound in Presence of Ketoconazole (A. niger; ketoconazole 2 μg/ml): > 50 µg/mL
MIC (Candida albicans MY 1055 [2]): 2.5 µg/mL (≈ 7.71 µM)
Fungal Growth (Candida albicans; Table 1, 2 hours, β-lactone 2.5 μg/ml): 3.85 × 10^3 CFU/ML
Fungal Growth (Candida albicans; Table 1, 4.5 hours, β-lactone 2.5 μg/ml): 8.80 × 10^3 CFU/ML
Fungal Growth (Candida albicans; Table 1, 7 hours, β-lactone 2.5 μg/ml): 1.12 × 10^4 CFU/ML
Fungal Growth (Candida albicans; Table 1, 11 hours, β-lactone 2.5 μg/ml): 1.28 × 10^4 CFU/ML
Fungal Growth (Candida albicans; Table 1, 17 hours, β-lactone 2.5 μg/ml): 9.35 × 10^3 CFU/ML
Fungal Growth (Candida albicans; Table 1, 22 hours, β-lactone 2.5 μg/ml): 1.23 × 10^4 CFU/ML
Fungal Growth (Candida albicans; Table 1, 27 hours, β-lactone 2.5 μg/ml): 1.80 × 10^4 CFU/ML
Fungal Growth (Candida albicans; Table 2, 2 hours, β-lactone 10 μg/ml): 6.50 × 10^3 CFU/ML
Fungal Growth (Candida albicans; Table 2, 4.5 hours, β-lactone 10 μg/ml): 7.50 × 10^3 CFU/ML
Fungal Growth (Candida albicans; Table 2, 7 hours, β-lactone 10 μg/ml): 3.35 × 10^3 CFU/ML
Fungal Growth (Candida albicans; Table 2, 11 hours, β-lactone 10 μg/ml): 8.70 × 10^2 CFU/ML
Fungal Growth (Candida albicans; Table 2, 17 hours, β-lactone 10 μg/ml): 5.00 × 10^1 CFU/ML
Fungal Growth (Candida albicans; Table 2, 22 hours, β-lactone 10 μg/ml): 6.50 × 10^1 CFU/ML
Fungal Growth (Candida albicans; Table 2, 27 hours, β-lactone 10 μg/ml): 7.50 × 10^1 CFU/ML
MIC, β-Lactone Compound in Presence of Ketoconazole (F. oxysporium; ketoconazole 0 μg/ml): > 50 µg/mL
MIC, β-Lactone Compound in Presence of Ketoconazole (F. oxysporium; ketoconazole 0.031 μg/ml): > 50 µg/mL
MIC, β-Lactone Compound in Presence of Ketoconazole (F. oxysporium; ketoconazole 0.123 μg/ml): > 50 µg/mL
MIC, β-Lactone Compound in Presence of Ketoconazole (F. oxysporium; ketoconazole 0.5 μg/ml): > 50 µg/mL
MIC, β-Lactone Compound in Presence of Ketoconazole (F. oxysporium; ketoconazole 2 μg/ml): > 50 µg/mL
MIC, β-Lactone Compound in Presence of Ketoconazole (C. neoformans; ketoconazole 0 μg/ml): 12.5 µg/mL
MIC, β-Lactone Compound in Presence of Ketoconazole (C. neoformans; ketoconazole 0.031 μg/ml): 12.5 µg/mL
MIC, β-Lactone Compound in Presence of Ketoconazole (C. neoformans; ketoconazole 0.123 μg/ml): 3.125 µg/mL
MIC, β-Lactone Compound in Presence of Ketoconazole (C. neoformans; ketoconazole 0.5 μg/ml): 0.19 µg/mL
MIC, β-Lactone Compound in Presence of Ketoconazole (C. neoformans; ketoconazole 2 μg/ml): 0.19 µg/mL
MIC, β-Lactone Compound in Presence of Ketoconazole (C. albicans (Y1055); ketoconazole 0 μg/ml): 3.125 µg/mL
MIC, β-Lactone Compound in Presence of Ketoconazole (C. albicans (Y1055); ketoconazole 0.031 μg/ml): 0.78 µg/mL
MIC, β-Lactone Compound in Presence of Ketoconazole (C. albicans (Y1055); ketoconazole 0.123 μg/ml): 0.78 µg/mL
MIC, β-Lactone Compound in Presence of Ketoconazole (C. albicans (Y1055); ketoconazole 0.5 μg/ml): 0.19 µg/mL
MIC, β-Lactone Compound in Presence of Ketoconazole (C. albicans (Y1055); ketoconazole 2 μg/ml): 0.19 µg/mL
MFC (Candida albicans MY 1055 [3]): 10 µg/mL (≈ 30.8 µM)
